{
  "source": "patent US9765060B2",
  "about": "(Gilead Sciences, Inc., priority 2014, dated 2017)",
  "data": [
    {"molecular_target": "PI3K isoform δ (Homo sapiens (Human), UniProt O00329)", "sequence (O00329 whole entry, canonical isoform)": "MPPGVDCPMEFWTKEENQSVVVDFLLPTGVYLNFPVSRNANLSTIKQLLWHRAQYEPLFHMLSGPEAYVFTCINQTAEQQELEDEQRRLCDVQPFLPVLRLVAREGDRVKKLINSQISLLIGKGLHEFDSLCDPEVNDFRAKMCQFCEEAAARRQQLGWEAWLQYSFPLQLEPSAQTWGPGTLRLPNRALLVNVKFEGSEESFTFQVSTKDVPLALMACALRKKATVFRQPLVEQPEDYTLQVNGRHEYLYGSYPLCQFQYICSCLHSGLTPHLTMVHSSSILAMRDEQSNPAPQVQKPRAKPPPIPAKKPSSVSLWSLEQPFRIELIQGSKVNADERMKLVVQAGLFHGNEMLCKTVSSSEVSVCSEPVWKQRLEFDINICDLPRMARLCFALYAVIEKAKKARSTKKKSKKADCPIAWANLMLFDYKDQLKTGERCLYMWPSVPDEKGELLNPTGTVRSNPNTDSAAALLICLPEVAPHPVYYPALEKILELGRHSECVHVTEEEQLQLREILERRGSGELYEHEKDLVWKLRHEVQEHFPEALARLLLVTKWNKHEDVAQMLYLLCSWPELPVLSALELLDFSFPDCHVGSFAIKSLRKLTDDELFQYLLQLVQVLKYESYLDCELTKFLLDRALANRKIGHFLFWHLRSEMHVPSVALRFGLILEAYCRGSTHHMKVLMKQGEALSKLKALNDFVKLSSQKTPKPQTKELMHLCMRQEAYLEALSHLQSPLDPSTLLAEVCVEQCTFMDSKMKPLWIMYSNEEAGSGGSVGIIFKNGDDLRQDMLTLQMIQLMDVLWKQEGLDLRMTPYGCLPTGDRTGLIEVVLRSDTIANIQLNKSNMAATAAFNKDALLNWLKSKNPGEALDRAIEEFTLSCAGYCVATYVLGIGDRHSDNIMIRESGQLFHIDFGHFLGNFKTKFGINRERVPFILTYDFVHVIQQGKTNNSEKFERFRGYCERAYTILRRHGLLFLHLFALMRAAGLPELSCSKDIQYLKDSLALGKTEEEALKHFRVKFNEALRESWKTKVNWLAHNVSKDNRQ", "sequence (P27986 whole entry partner, canonical isoform)": "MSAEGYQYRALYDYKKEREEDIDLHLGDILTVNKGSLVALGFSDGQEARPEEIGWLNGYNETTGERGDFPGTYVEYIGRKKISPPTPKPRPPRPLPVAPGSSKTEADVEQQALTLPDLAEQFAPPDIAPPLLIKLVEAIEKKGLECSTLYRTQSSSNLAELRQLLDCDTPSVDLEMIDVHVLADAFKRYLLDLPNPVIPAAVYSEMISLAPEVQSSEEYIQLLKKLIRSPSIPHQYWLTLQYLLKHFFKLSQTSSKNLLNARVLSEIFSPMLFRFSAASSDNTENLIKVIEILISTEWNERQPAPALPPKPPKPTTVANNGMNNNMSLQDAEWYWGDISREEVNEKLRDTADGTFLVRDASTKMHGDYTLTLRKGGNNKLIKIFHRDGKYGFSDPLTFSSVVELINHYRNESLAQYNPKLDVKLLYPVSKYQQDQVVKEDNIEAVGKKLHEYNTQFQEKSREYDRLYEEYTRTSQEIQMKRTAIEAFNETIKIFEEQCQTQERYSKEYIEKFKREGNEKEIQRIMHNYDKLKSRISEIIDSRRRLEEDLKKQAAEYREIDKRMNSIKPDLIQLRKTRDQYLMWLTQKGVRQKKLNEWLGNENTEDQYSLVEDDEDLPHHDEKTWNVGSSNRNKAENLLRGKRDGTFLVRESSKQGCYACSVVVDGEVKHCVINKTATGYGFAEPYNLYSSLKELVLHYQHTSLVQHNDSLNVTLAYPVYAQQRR", "experiment": "TR-FRET assay of enzymatic activity of class I PI3K isoforms", "details": "not given", "units": {"IC50": "nM"}, "values": [
      {"smiles": "N#Cc1c(N)nc(N)nc1N1CCC[C@H]1c1nc2cccc(S(=O)(=O)c3ccccc3)c2c(=O)n1-c1cccc(F)c1", "note": "[Compound 77]", "IC50": 2}
    ]},
    {"molecular_target": "PI3K isoform δ (Homo sapiens (Human), UniProt O00329)", "experiment": "TR-FRET assay of enzymatic activity of class I PI3K isoforms", "details": "read-out: IC50 (nM) for PI3K isoform δ (Table 2); TR-FRET; 2× Km ATP, 2 μM PIP2; incubated for 30 minutes at 25° C.", "units": {"IC50": "nM"}, "values": [
      {"smiles": "N#Cc1c(N)nc(N)nc1N[C@H](c1nc2c(F)ccc(C#N)c2c(=O)n1-c1ccccc1)C1CC1", "note": "[Compound 2a, (S)-2-(cyclopropyl((2,6-diamino-5-cyanopyrimidin-4-yl)amino)methyl)-8-fluoro-4-oxo-3-phenyl-3,4-dihydroquinazoline-5-carbonitrile]", "IC50": 10},
      {"smiles": "CS(=O)(=O)c1cccc2nc([C@@H](Nc3nc(N)nc(N)c3C#N)C3CC3)n(-c3cccc(F)c3)c(=O)c12", "note": "[Compound 5a, (S)-2,4-diamino-6-((cyclopropyl(3-(3-fluorophenyl)-5-(methylsulfonyl)-4-oxo-3,4-dihydroquinazolin-2-yl)methyl)amino)pyrimidine-5-carbonitrile]", "IC50": 5},
      {"smiles": "N#Cc1c(N)nc(N)nc1N[C@H](c1nc2cccc(Cl)c2c(=O)n1-c1cc(F)cc(F)c1)C1CC1", "note": "[Compound 13a, (S)-2,4-diamino-6-(((5-chloro-3-(3,5-difluorophenyl)-4-oxo-3,4-dihydroquinazolin-2-yl)(cyclopropyl)methyl)amino)pyrimidine-5-carbonitrile]", "IC50": 1}
    ]},
    {"molecular_target": "PI3K isoform δ (Homo sapiens (Human), UniProt O00329)", "experiment": "TR-FRET assay of enzymatic activity of class I PI3K isoforms", "details": "read-out: IC50 (nM) for PI3K isoform δ (Table 3); TR-FRET; 2× Km ATP, 2 μM PIP2; incubated for 30 minutes at 25° C.", "units": {"IC50": "nM"}, "values": [
      {"smiles": "C[C@H](Nc1nc(N)nc(N)c1C#N)c1nc2c(F)ccc(CCCN3CCCC3)c2c(=O)n1-c1ccccc1", "note": "[Compound 50, (S)-2,4-diamino-6-((1-(8-fluoro-4-oxo-3-phenyl-5-(3-(pyrrolidin-1-yl)propyl)-3,4-dihydroquinazolin-2-yl)ethyl)amino)pyrimidine-5-carbonitrile]", "IC50": 1.3},
      {"smiles": "Cc1nccn1CCOc1cccc2nc([C@H](C)Nc3nc(N)nc(N)c3C#N)n(-c3ccccc3)c(=O)c12", "note": "[Compound 32, (S)-2,4-diamino-6-((1-(5-(2-(2-methyl-1H-imidazol-1-yl)ethoxy)-4-oxo-3-phenyl-3,4-dihydroquinazolin-2-yl)ethyl)amino)pyrimidine-5-carbonitrile]", "IC50": 85},
      {"smiles": "N#Cc1c(N)nc(N)nc1N1CCC[C@H]1c1nc2c(Cl)cccc2c(=O)n1-c1cc(F)cc(F)c1", "note": "[Compound 85, (S)-2,4-diamino-6-(2-(8-chloro-3-(3,5-difluorophenyl)-4-oxo-3,4-dihydroquinazolin-2-yl)pyrrolidin-1-yl)pyrimidine-5-carbonitrile]", "IC50": 10},
      {"smiles": "N#Cc1c(Cl)nc(N)nc1N[C@H](c1nc2cccc(CCCN3CCCC3)c2c(=O)n1-c1ccccc1)C1CC1", "note": "[Compound 60, (S)-2-amino-4-chloro-6-((cyclopropyl(4-oxo-3-phenyl-5-(3-(pyrrolidin-1-yl)propyl)-3,4-dihydroquinazolin-2-yl)methyl)amino)pyrimidine-5-carbonitrile]", "IC50": 6},
      {"smiles": "Cc1nc(N)nc(N[C@@H](C)c2nc3cccc(Cl)c3c(=O)n2-c2ccccc2)c1I", "note": "[Compound 97, (S)-2-(1-((2-amino-5-iodo-6-methylpyrimidin-4-yl)amino)ethyl)-5-chloro-3-phenylquinazolin-4(3H)-one]", "IC50": 0.6},
      {"smiles": "CC1COCC(C)N1CCCc1cccc2nc([C@H](C)Nc3nc(N)nc(N)c3C#N)n(-c3ccccc3)c(=O)c12", "note": "(stereo partly drawn) [Compound 49, 2,4-diamino-6-(((1S)-1-(5-(3-(3,5-dimethylmorpholino)propyl)-4-oxo-3-phenyl-3,4-dihydroquinazolin-2-yl)ethyl)amino)pyrimidine-5-carbonitrile]", "IC50": 1.4},
      {"smiles": "C[C@H](Nc1nc(N)nc(N)c1C#N)c1nc2cccc(CCCC3CCCCC3)c2c(=O)n1-c1ccccc1", "note": "[Compound 65, (S)-2,4-diamino-6-((1-(5-(3-cyclohexylpropyl)-4-oxo-3-phenyl-3,4-dihydroquinazolin-2-yl)ethyl)amino)pyrimidine-5-carbonitrile]", "IC50": 15},
      {"smiles": "N#Cc1c(N)nc(N)nc1N1C[C@H](NC(=O)C(F)F)C[C@H]1c1nc2cccc(F)c2c(=O)n1-c1cc(F)cc(F)c1", "note": "[Compound 111, N-((3R,5S)-1-(2,6-diamino-5-cyanopyrimidin-4-yl)-5-(3-(3,5-difluorophenyl)-5-fluoro-4-oxo-3,4-dihydroquinazolin-2-yl)pyrrolidin-3-yl)-2,2-difluoroacetamide]", "IC50": 9},
      {"smiles": "C[C@H](Nc1nc(N)nc(N)c1C#N)c1nc2cccc(OCCN3CCCCCC3)c2c(=O)n1-c1ccccc1", "note": "[Compound 23, (S)-2,4-diamino-6-((1-(5-(2-(azepan-1-yl)ethoxy)-4-oxo-3-phenyl-3,4-dihydroquinazolin-2-yl)ethyl)amino)pyrimidine-5-carbonitrile]", "IC50": 10},
      {"smiles": "N#Cc1c(N)nc(N)nc1N1CCC[C@H]1c1nc2c(C#N)cccc2c(=O)n1-c1cccc(C(F)F)c1", "note": "[Compound 90, (S)-2-(1-(2,6-diamino-5-cyanopyrimidin-4-yl)pyrrolidin-2-yl)-3-(3-(difluoromethyl)phenyl)-4-oxo-3,4-dihydroquinazoline-8-carbonitrile]", "IC50": 5},
      {"smiles": "N#Cc1c(N)nc(N)nc1N1CCC[C@H]1c1nc2c(Cl)ccc(Cl)c2c(=O)n1-c1cccc(S(N)(=O)=O)c1", "note": "(single isomer, unassigned) [Compound 92]", "IC50": 7},
      {"smiles": "CC(C)OC(=O)COc1cccc2nc([C@H](C)Nc3nc(N)nc(N)c3C#N)n(-c3ccccc3)c(=O)c12", "note": "[Compound 25, (S)-isopropyl 2-((2-(1-((2,6-diamino-5-cyanopyrimidin-4-yl)amino)ethyl)-4-oxo-3-phenyl-3,4-dihydroquinazolin-5-yl)oxy)acetate]", "IC50": 36},
      {"smiles": "C[C@H](Nc1nc(N)nc(N)c1C#N)c1nc2cccc(CCCC(=O)O)c2c(=O)n1-c1cc(F)cc(F)c1", "note": "[Compound 71, (S)-4-(2-(1-((2,6-diamino-5-cyanopyrimidin-4-yl)amino)ethyl)-3-(3,5-difluorophenyl)-4-oxo-3,4-dihydroquinazolin-5-yl)butanoic acid]", "IC50": 2},
      {"smiles": "Cc1nc(N)nc(N[C@@H](C)c2nc3cccc(Cl)c3c(=O)n2-c2ccccc2)c1C#N", "note": "[Compound 96, (S)-2-amino-4-((1-(5-chloro-4-oxo-3-phenyl-3,4-dihydroquinazolin-2-yl)ethyl)amino)-6-methylpyrimidine-5-carbonitrile]", "IC50": 0.1},
      {"smiles": "N#Cc1c(N)nc(N)nc1N1C[C@H](F)C[C@H]1c1nc2cccc(Cl)c2c(=O)n1-c1cc(F)cc(F)c1", "note": "[Compound 95, 2,4-diamino-6-((2S,4R)-2-(5-chloro-3-(3,5-difluorophenyl)-4-oxo-3,4-dihydroquinazolin-2-yl)-4-fluoropyrrolidin-1-yl)pyrimidine-5-carbonitrile]", "IC50": 160},
      {"smiles": "N#Cc1c(N)nc(N)nc1N[C@H](c1nc2c(F)ccc(CCCN3CCCCC3)c2c(=O)n1-c1ccccc1)C1CC1", "note": "[Compound 59, (S)-2,4-diamino-6-((cyclopropyl(8-fluoro-4-oxo-3-phenyl-5-(3-(piperidin-1-yl)propyl)-3,4-dihydroquinazolin-2-yl)methyl)amino)pyrimidine-5-carbonitrile]", "IC50": 2},
      {"smiles": "C[C@H](Nc1nc(F)nc(N)c1C#N)c1nc2cccc(Cl)c2c(=O)n1-c1ccccc1", "note": "[Compound 106, (S)-4-amino-6-((1-(5-chloro-4-oxo-3-phenyl-3,4-dihydroquinazolin-2-yl)ethyl)amino)-2-fluoropyrimidine-5-carbonitrile]", "IC50": 0.8},
      {"smiles": "CC1CCN(C(=O)COc2cccc3nc([C@H](C)Nc4nc(N)nc(N)c4C#N)n(-c4ccccc4)c(=O)c23)CC1", "note": "[Compound 36, (S)-2,4-diamino-6-((1-(5-(2-(4-methylpiperidin-1-yl)-2-oxoethoxy)-4-oxo-3-phenyl-3,4-dihydroquinazolin-2-yl)ethyl)amino)pyrimidine-5-carbonitrile]", "IC50": 2},
      {"smiles": "CS(=O)(=O)c1cccc2nc([C@@H]3CCCN3c3nc(N)nc(N)c3C#N)n(-c3cccc(F)c3)c(=O)c12", "note": "[Compound 72, (S)-2,4-diamino-6-(2-(3-(3-fluorophenyl)-5-(methylsulfonyl)-4-oxo-3,4-dihydroquinazolin-2-yl)pyrrolidin-1-yl)pyrimidine-5-carbonitrile]", "IC50": 4},
      {"smiles": "N#Cc1c(N)nc(N)nc1N1CCC[C@H]1c1nc2cccc(F)c2c(=O)n1-c1cc(F)cc(F)c1", "note": "[Compound 87, (S)-2,4-diamino-6-(2-(3-(3,5-difluorophenyl)-5-fluoro-4-oxo-3,4-dihydroquinazolin-2-yl)pyrrolidin-1-yl)pyrimidine-5-carbonitrile]", "IC50": 23},
      {"smiles": "CS(=O)(=O)c1cccc2nc([C@@H]3CCCN3c3nc(N)nc(N)c3C#N)n(-c3ccccc3F)c(=O)c12", "note": "(atropisomer, axis not shown) [Compound 73, (S)-2,4-diamino-6-(2-(3-(2-fluorophenyl)-5-(methylsulfonyl)-4-oxo-3,4-dihydroquinazolin-2-yl)pyrrolidin-1-yl)pyrimidine-5-carbonitrile]", "IC50": 4},
      {"smiles": "N#Cc1c(N)nc(N)nc1N[C@H](c1nc2cccc(CCCN3CCCC3)c2c(=O)n1-c1ccccc1)C1CC1", "note": "[Compound 56, (S)-2,4-diamino-6-((cyclopropyl(4-oxo-3-phenyl-5-(3-(pyrrolidin-1-yl)propyl)-3,4-dihydroquinazolin-2-yl)methyl)amino)pyrimidine-5-carbonitrile]", "IC50": 3},
      {"smiles": "C[C@H](Nc1nc(N)nc(N)c1C#N)c1nc2cccc(OCCN3CCCC3=O)c2c(=O)n1-c1ccccc1", "note": "[Compound 26]", "IC50": 21},
      {"smiles": "N#Cc1c(N)nc(N)nc1N1C[C@H](NC(=O)CN)C[C@H]1c1nc2cccc(Cl)c2c(=O)n1-c1cc(F)cc(F)c1", "note": "[Compound 116, 2-amino-N-((3R,5S)-5-(5-chloro-3-(3,5-difluorophenyl)-4-oxo-3,4-dihydroquinazolin-2-yl)-1-(2,6-diamino-5-cyanopyrimidin-4-yl)pyrrolidin-3-yl)acetamide]", "IC50": 7},
      {"smiles": "N#Cc1c(N)nc(N)nc1N1CCC[C@H]1c1nc2c(Cl)ccc(Cl)c2c(=O)n1-c1cccc(S(N)(=O)=O)c1", "note": "[Compound 91, (S)-3-(5,8-dichloro-2-(1-(2,6-diamino-5-cyanopyrimidin-4-yl)pyrrolidin-2-yl)-4-oxoquinazolin-3(4H)-yl)benzenesulfonamide]", "IC50": 17}
    ]}
  ]
}
